Experimental data: ChEMBL document CHEMBL6096702, “Discovery of a Novel p38α-MK2 Complex Inhibitor as a Potential Choice for Autoimmune Diseases” (J Med Chem, 2025)
Activity calls are given as the source filed them. The calls are words filed in the database; no cut-off is given here.

Legend:
[1] = tested on: Rattus norvegicus; test: Antiarthritic activity in Mycobacterium tuberculosis H37R-induced female Lewis rat model of arthritis at 1 mg/kg, po administered twice daily for 15 days starting from day 13 after adjuvant administration; type: functional, organism-based; conditions: time 15.0 day
[2] = MRT in male Beagle dog at 1 mg/kg, iv measured after 24 hrs by LC-MS/MS analysis; type: ADME, organism-based, Canis lupus familiaris; conditions: in vivo
[3] = Half-life in male Sprague-Dawley rat at 1 mg/kg, iv measured after 24 hrs by LC-MS/MS analysis; type: ADME, organism-based; conditions: in vivo
[4] = target: Cytochrome P450 2C9 (Homo sapiens, UniProt P11712); test: Inhibition of CYP2C9 in human liver microsomes using tolbutamide as substrate in presence of NADP by LC-MS/MS analysis; type: ADME, Microsome
Sequence of Cytochrome P450 2C9 (P11712 whole entry): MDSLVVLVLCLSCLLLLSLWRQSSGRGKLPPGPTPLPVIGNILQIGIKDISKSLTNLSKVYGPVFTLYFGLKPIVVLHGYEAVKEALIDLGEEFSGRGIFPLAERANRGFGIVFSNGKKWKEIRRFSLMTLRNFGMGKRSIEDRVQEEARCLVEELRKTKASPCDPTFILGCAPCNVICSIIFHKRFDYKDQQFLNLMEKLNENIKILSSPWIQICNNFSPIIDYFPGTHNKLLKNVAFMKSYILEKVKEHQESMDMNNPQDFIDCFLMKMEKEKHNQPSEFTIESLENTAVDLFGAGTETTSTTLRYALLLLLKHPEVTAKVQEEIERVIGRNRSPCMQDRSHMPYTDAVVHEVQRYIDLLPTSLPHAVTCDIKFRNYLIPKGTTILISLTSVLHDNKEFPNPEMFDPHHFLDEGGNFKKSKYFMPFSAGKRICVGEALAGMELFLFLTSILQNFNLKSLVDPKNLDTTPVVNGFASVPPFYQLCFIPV

[5] = Cmax in female Lewis rat at 1 mg/kg, po measured after 24 hrs by LC-MS/MS analysis; type: ADME, organism-based; conditions: in vivo
[6] = Cmax in male Beagle dog at 2 mg/kg, po measured after 24 hrs by LC-MS/MS analysis; type: ADME, organism-based, Canis lupus familiaris; conditions: in vivo
[7] = target: Voltage-gated inwardly rectifying potassium channel KCNH2 (Homo sapiens, UniProt Q12809); test: Inhibition of human ERG in HEK293 cells; type: toxicity, cell-based
Sequence of Voltage-gated inwardly rectifying potassium channel KCNH2 (Q12809 whole entry): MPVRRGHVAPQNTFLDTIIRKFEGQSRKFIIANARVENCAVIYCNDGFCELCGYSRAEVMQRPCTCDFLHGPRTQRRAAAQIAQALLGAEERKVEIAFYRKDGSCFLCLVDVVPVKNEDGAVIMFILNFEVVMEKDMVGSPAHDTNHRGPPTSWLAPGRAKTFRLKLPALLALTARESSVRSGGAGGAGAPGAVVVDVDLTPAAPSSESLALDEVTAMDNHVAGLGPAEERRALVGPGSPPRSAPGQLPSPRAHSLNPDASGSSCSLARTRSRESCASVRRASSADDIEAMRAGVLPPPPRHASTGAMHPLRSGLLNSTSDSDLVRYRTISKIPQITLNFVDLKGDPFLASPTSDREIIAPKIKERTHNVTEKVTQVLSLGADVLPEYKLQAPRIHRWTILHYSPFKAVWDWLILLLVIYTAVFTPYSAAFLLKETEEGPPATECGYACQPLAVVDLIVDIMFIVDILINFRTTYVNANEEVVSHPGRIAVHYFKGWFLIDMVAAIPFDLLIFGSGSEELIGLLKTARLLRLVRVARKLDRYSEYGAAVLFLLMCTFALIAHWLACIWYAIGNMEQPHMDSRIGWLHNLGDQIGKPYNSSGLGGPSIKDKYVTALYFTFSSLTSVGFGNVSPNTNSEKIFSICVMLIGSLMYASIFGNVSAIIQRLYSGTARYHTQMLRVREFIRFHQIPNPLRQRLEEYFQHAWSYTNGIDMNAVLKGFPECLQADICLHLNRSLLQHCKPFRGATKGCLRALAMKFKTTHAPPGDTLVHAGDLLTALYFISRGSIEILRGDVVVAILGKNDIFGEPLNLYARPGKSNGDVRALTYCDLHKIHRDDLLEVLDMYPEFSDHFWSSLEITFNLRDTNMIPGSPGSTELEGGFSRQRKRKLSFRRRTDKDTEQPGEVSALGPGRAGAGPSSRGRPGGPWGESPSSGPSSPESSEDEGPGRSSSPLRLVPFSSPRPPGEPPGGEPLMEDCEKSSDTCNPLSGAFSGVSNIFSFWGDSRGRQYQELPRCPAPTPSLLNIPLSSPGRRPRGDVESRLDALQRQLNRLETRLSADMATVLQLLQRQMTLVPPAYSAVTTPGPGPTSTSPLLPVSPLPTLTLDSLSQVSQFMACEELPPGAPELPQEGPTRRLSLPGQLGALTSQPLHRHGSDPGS

[8] = Half-life in male Beagle dog at 1 mg/kg, iv measured after 24 hrs by LC-MS/MS analysis; type: ADME, organism-based, Canis lupus familiaris; conditions: in vivo
[9] = AUClast in male Sprague-Dawley rat at 1 mg/kg, iv measured after 24 hrs by LC-MS/MS analysis; type: ADME, organism-based; conditions: in vivo
[10] = Half-life in female Lewis rat at 3 mg/kg, po measured after 24 hrs by LC-MS/MS analysis; type: ADME, organism-based; conditions: in vivo
[11] = Cmax in male Sprague-Dawley rat at 2 mg/kg, po measured after 24 hrs by LC-MS/MS analysis; type: ADME, organism-based; conditions: in vivo
[12] = tested on: PBMC; test: Inhibition of LPS-induced IL-6 production in human PBMC cells at 0.01 to 10000 nM preincubated with compound for 1 hrs followed by LPS addition and measured after 4 hrs; type: functional, cell-based; conditions: dose 0.01-10000 nM, time 5.0 hrs
[13] = tested on: PBMC; test: Inhibition of LPS-induced IL-8 production in human PBMC cells at 0.01 to 10000 nM preincubated with compound for 1 hrs followed by LPS addition and measured after 4 hrs; type: functional, cell-based; conditions: dose 0.01-10000 nM, time 5.0 hrs
[14] = target: T1, Cytochrome P450 3A4 (Homo sapiens, UniProt P08684); test: Inhibition of CYP3A4 in human liver microsomes using testosterone as substrate in presence of NADP by LC-MS/MS analysis; type: ADME, Microsome
T1 sequence (P08684 whole entry): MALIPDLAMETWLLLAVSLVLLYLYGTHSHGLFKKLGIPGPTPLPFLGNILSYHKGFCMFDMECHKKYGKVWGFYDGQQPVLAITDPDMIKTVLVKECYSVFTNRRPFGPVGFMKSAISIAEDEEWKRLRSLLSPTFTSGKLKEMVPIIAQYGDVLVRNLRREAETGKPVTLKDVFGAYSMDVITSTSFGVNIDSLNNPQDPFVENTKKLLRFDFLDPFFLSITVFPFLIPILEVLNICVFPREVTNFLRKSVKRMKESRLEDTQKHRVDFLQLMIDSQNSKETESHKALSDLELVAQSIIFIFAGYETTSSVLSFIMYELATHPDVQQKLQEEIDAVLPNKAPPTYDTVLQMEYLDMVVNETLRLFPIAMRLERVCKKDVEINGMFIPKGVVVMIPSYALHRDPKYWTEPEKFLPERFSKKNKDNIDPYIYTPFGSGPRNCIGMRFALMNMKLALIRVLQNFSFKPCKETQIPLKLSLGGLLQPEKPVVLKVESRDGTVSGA

[15] = tested on: Rattus norvegicus; test: Antiarthritic activity in Mycobacterium tuberculosis H37R-induced female Lewis rat model of arthritis assessed as reduction in clinical score at 1 mg/kg, po administered twice daily for 15 days starting from day 13 after adjuvant administration; type: functional, organism-based; conditions: time 15.0 day
[16] = tested on: Rattus norvegicus; test: Antiarthritic activity in Mycobacterium tuberculosis H37R-induced female Lewis rat model of arthritis assessed as inhibition of IL-6 production at 0.3 to 1 mg/kg, po administered twice daily for 15 days starting from day 13 after adjuvant administration; type: functional, organism-based; conditions: dose 0.3-1 mg/kg, time 15.0 day
[17] = tested on: Rattus norvegicus; test: Antiarthritic activity in Mycobacterium tuberculosis H37R-induced female Lewis rat model of arthritis assessed as reduction in paw inflammation at 0.3 to 1 mg/kg, po administered twice daily for 15 days starting from day 13 after adjuvant administration by micro-CT analysis; type: functional, organism-based; conditions: dose 0.3-1 mg/kg, time 15.0 day
[18] = Cmax in female Lewis rat at 3 mg/kg, po measured after 24 hrs by LC-MS/MS analysis; type: ADME, organism-based; conditions: in vivo
[19] = Inhibition of N-terminal GST-tagged wildtype human P38alpha (4 to 152 residues) extracted from Escherichia coli/GST-tagged PRAK (unknown origin) assessed as reduction in HSP27 phosphorylation incubated for 2 hrs in presence of ATP and HSP27-FITC peptide by fluorescence polarization based IMAP assay
[20] = Half-life in female Lewis rat at 1 mg/kg, po measured after 24 hrs by LC-MS/MS analysis; type: ADME, organism-based; conditions: in vivo
[21] = Inhibition of HSP27 phosphorylation in human THP-1 cells at 0.1 to 1000 nM preincubated with compounds followed by LPS addition for 30 mins; type: cell-based
[22] = tested on: PBMC; test: Inhibition of LPS-induced TNF-alpha production in human PBMC cells at 0.01 to 10000 nM preincubated with compound for 1 hrs followed by LPS addition and measured after 4 hrs; type: functional, cell-based; conditions: dose 0.01-10000 nM, time 5.0 hrs
[23] = Clearance in male Sprague-Dawley rat at 1 mg/kg, iv measured after 24 hrs by LC-MS/MS analysis; type: ADME, organism-based; conditions: in vivo
[24] = Inhibition of P38alpha/GST-tagged ATF2 (unknown origin) assessed as reduction in ATF2 phosphorylation incubated for 30 mins in presence of ATP by TR-FRET assay; set-up: species or system Homo sapiens
[25] = Clearance in male Beagle dog at 1 mg/kg, iv measured after 24 hrs by LC-MS/MS analysis; type: ADME, organism-based, Canis lupus familiaris; conditions: in vivo
[26] = target: T2, Cytochrome P450 1A2 (Homo sapiens, UniProt P05177); test: Inhibition of CYP1A2 in human liver microsomes using phenacetin as substrate in presence of NADP by LC-MS/MS analysis; type: ADME, Microsome
T2 sequence (P05177 whole entry): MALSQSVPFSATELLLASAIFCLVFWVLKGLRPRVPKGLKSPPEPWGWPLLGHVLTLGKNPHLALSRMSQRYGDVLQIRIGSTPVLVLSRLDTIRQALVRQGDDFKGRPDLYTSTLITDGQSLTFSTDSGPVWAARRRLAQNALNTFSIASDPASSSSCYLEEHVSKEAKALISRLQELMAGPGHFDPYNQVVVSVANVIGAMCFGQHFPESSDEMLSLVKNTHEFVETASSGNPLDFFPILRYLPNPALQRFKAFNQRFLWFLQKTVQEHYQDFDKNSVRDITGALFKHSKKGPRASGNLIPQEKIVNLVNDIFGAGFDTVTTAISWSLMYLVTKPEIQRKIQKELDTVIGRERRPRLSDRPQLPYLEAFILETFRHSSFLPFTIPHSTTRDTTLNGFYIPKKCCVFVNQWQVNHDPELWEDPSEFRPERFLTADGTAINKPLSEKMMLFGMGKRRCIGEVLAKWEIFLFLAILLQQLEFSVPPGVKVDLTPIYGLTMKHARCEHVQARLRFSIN

[27] = target: T1, Cytochrome P450 3A4; test: Inhibition of CYP3A4 in human liver microsomes using midazolam as substrate in presence of NADP by LC-MS/MS analysis; type: ADME, Microsome
[28] = target: Cytochrome P450 2D6 (Homo sapiens, UniProt P10635); test: Inhibition of CYP2D6 in human liver microsomes using dextromethorphan as substrate in presence of NADP by LC-MS/MS analysis; type: ADME, Microsome
Sequence of Cytochrome P450 2D6 (P10635 whole entry): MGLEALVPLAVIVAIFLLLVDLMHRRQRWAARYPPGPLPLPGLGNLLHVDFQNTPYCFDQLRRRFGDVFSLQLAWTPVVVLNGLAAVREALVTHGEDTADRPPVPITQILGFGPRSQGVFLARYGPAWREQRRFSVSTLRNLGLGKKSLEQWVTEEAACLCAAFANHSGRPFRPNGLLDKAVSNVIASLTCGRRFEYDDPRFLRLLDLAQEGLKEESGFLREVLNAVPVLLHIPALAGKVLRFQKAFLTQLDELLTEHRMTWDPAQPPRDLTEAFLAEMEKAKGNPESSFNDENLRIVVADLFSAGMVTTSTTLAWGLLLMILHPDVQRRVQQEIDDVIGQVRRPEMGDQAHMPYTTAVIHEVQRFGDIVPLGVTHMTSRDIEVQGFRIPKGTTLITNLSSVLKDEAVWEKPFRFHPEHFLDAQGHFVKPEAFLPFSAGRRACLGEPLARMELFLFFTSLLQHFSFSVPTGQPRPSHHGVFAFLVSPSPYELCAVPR

[29] = Volume of distribution at steady state in male Beagle dog at 1 mg/kg, iv measured after 24 hrs by LC-MS/MS analysis; type: ADME, organism-based, Canis lupus familiaris; conditions: in vivo, read-out: Vdss
[30] = Oral bioavailability in male Sprague-Dawley rat at 2 mg/kg measured after 24 hrs by LC-MS/MS analysis; type: ADME, organism-based; conditions: in vivo
[31] = target: Cytochrome P450 2C19 (Homo sapiens, UniProt P33261); test: Inhibition of CYP2C19 in human liver microsomes using mephenytoin as substrate in presence of NADP by LC-MS/MS analysis; type: ADME, Microsome
Sequence of Cytochrome P450 2C19 (P33261 whole entry): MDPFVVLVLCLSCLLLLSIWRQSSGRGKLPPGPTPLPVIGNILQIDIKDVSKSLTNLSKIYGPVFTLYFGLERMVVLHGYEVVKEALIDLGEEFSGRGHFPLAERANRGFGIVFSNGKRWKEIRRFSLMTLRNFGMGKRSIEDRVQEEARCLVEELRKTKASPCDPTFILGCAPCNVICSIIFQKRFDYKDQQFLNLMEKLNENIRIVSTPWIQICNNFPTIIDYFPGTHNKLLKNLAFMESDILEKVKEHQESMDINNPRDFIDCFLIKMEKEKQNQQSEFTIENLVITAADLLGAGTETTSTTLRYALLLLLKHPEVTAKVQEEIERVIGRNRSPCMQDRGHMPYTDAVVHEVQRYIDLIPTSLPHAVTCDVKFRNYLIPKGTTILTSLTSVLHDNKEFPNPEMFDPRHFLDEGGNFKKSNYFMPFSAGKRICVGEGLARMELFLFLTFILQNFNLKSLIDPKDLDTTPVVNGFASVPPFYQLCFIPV

For `Cc1cnc(-c2ccnc(C(C)(C)O)n2)c(F)c1-n1c(C)cc(O[C@@H](C)c2ncc(F)cc2F)c(C)c1=O`, the Activity [1] was “Active”, the MRT [2] was 2.9 h and the half-life [3] was 2.8 h. It also gave an IC50 [4] greater than 40 µM, a Cmax [5] of 299 ng/mL and a Cmax [6] of 1120 ng/mL. For the same compound, the IC50 [7] was greater than 30 µM, the half-life [8] was 2.9 h and the AUC(0-t) at 24 h [9] was 1800 ng·h/mL. For the same compound, the half-life [10] was 3.5 h, the Cmax [11] was 1140 ng/mL and the inhibition [12] was “Active”. For the same compound, the inhibition [13] was “Active”, the IC50 [14] was greater than 40 µM and the Activity [15] was “Active; Comparable To 3 Mg/Kg Of Compound 1”. The Activity [16] was “Active”, the Activity [17] was “Active” and the Cmax [18] was 916 ng/mL. It also gave an IC50 [19] of 5.85 µM, a half-life [20] of 3.9 h and an IC50 [21] of 0.001 µM. For the same compound, the inhibition [22] was “Active”, the clearance [23] was 9.6 mL/min/kg and the IC50 [24] was 1 µM. The clearance [25] was 4.5 mL/min/kg, the IC50 [26] was greater than 40 µM and the IC50 [27] was greater than 40 µM. It also gave an IC50 [28] greater than 40 µM, a Vd [29] of 0.8 L/kg and a bioavailability [30] of 121%. It also gave an IC50 [31] greater than 40 µM.
